Here are results for nine compounds from patent US20110306641A1, “NOVEL 2,6-SUBSTITUTED-3-NITROPYRIDINE DERIVATIVE, METHOD FOR PREPARING SAME, AND PHARMACEUTICAL PREPARATION INCLUDING SAME” (priority 2008, published 2011).

The subject of series [1] is osteoclastogenesis (formation of multinucleated osteoclasts). As to the kind of experiment: Osteoclastogenesis inhibition via co-culture system (bone marrow cells + osteoblasts, TRAP staining). The series is classed as cell-based, mouse. To be noted: 7 days co-culture, vs vehicle control; for Osteoclastogenesis inhibition (%): 1 μM; for inhibition at 1 µM: Mus musculus, Osteoclast, 168 h. The protocol: Osteoclastogenesis inhibitory effects of the compounds of the present invention were evaluated via a co-culture system (Reference: Endocrinology 137(1996), 2187 to 2190, E. Jimi et al.). A specific experimental method is as follows.
1) Preparation of Bone Marrow Cells and Osteoblasts
Femur and tibia were aseptically dissected from 6 to 8-week-old male ddY mice to harvest bone marrow cells by a conventional method using a syringe. In brief, tissues were removed from the dissected bone, the bone ends were cut off with scissors, and the bone marrow was isolated by pushing a medium-containing syringe (23G) against the one end of the cut bone. The isolated bone marrow was subjected to repeated piston movement of a syringe such that single cells were obtained (Reference: Endocrinology 123(1988), 2600 to 2602, Takahashi et al.). After removal of red blood cells within the bone marrow, the bone marrow cells recovered by centrifugation were placed in an α-MEM supplemented with 10% fetal bovine serum (FBS), followed by counting of nucleated cells and then were immediately used for a co-culture system.
For the preparation of osteoblasts (Calvarial cells), the cranial bone were aseptically dissected from 1 to 2-day-old neonatal ICR mice and subjected to continuous reaction with a 0.2% collagenase solution to separate osteoblasts. The cell-suspended supernatant was centrifuged to recover osteoblasts which were grown to full confluence in an α-MEM supplemented with 10% FBS and then diluted to a desired cell density for use in the experiment.
2) Osteoclastogenesis Inhibition Experiment Via Co-Culture System
As the medium used for a co-culture system, a differentiation medium with the addition of differentiation factors 1α,25-dihydroxyvitamin D3 (10^−8M) and dexamethasone (10^−8M) to α-MEM supplemented with 10% FBS was used for the induction of osteoclastogenesis. First, the compounds of the present invention dissolved in dimethyl sulfoxide (DMSO) at a concentration of 1 mM were diluted to 2 μM using the above-mentioned differentiation medium. As a vehicle control group, 0.2% (v/v) DMSO was added to the medium. 100 μL/well of each medium was added to 96-well plates. In addition, the above prepared bone marrow cells and osteoblasts were plated onto 96-well plates at a density of 1×10^5 cells/50 μL/well and 3×10^3 cells/50 μL/well, respectively. The total volume/well was 200 μL and the final compound concentration was 1 μM. The control group was 0.1% (v/v) DMSO. The cells were cultured with exchange of the culture media with fresh media containing differentiation factors and test materials (materials containing the compounds of the present invention) at an interval of 2 to 3 days.
7 days after culturing of cells, the formation of multinucleated osteoclasts was confirmed by microscopic examination, the medium was removed from the wells and then the cells were fixed in a 10% phosphate-buffered formalin solution. The degree of formation of mature osteoclasts was measured taking advantage of the characteristics of osteoclasts showing a positive reaction to a tartrate-resistant acid phosphatase (TRAP) staining solution. The TRAP staining solution was prepared in a manner such that naphthol AS-MS phosphate as a substrate and a coloring agent (Fast Red Violet LB salt) were dissolved in N,N-dimethylformamide, and a 0.1N NaHCO3 buffer solution containing 50 mM of tartaric acid was added thereto. Among the TRAP-positive cells under a light microscope, multinucleated osteoclasts having 6 to 7 nuclei were regarded as mature osteoclasts.
The degree of inhibition of osteoclastogenesis was calculated according to the following equation 1. The results are summarized in Table 2 below (Experiments were carried out for 4 wells/experimental group (n=4), and the results are given in terms of mean±standard deviation) […]

Series [2] deals with Calvarial cell. As to the kind of experiment: Alkaline phosphatase (ALP) activity in osteoblasts (Calvarial cells). The series is classed as cell-based, mouse. Conditions: 3 days; for activity at 1 µM: Mus musculus, 72 h, read-out: ALP activity (1 μM, % of Control) Calvarial cell. On the procedure:
(§1) Differentiation and activity of osteoblasts were indirectly evaluated by measuring an ALP activity having a close relationship with osteogenesis.
(§2) Osteoblasts (Calvarial cells) prepared in Experimental Example 1 and MC3T3-E1 cells (available from RIKEN Cell Bank, Japan) were collected in α-MEM supplemented with 10% FBS, followed by cell counting. The cells were dispensed into 24-well cultureware at a density of 2×10^4 cells/well. After culturing of the cells for 24 hours, the culture media were discarded and replaced with fresh media in which test compounds were diluted to a concentration of 1 μM (1 mL/well). In addition, the vehicle control group containing 0.1% DMSO was also treated. Under the conditions where the compounds were treated, the cells were cultured in a 5% CO2 […] at 37° for 3 days. When the experiment was terminated, the supernatant was removed and the cells were washed three times with cold phosphate buffer at 4°. 0.2% Triton X-100 was added to the washed cells which were then subjected to three cycles of freezing at −70° and thawing at room temperature for the complete lysis of cells. The cell extracts were pooled and centrifuged to collect the cell supernatant which was used for the measurement of ALP activity and proteins. The protein concentration was measured using a BCA assay kit (manufactured by Sigma-Aldrich). For the measurement of ALP activity, p-nitrophenylphosphate was added to the cell supernatant which was then incubated at 37° for 30 minutes, and the reaction was terminated with the addition of 50 μL of 0.2N sodium hydroxide. The standard curve was plotted at the absorbance of 405 nm using p-nitrophenol as a standard material and then the absorbance of test materials thus reacted was measured to determine the production amount of p-nitrophenol.
(§3) The ALP activity was calculated by dividing the amount of p-nitrophenol produced from each test material by the protein amount and the reaction time. Therefore, the unit of ALP activity was given in terms of p-nitrophenol/μg protein/min. The results are given in Table 3 where the ALP activity unit of each test material was given in terms of % change through the comparison between the individual test materials and the vehicle control group.

The subject of another series is MC3T3-E1 cell. As to the kind of experiment: Alkaline phosphatase (ALP) activity in MC3T3-E1 cells. The series is classed as cell-based. To be noted: 3 days; for activity at 1 µM: Mus musculus, 72 h, read-out: ALP activity (1 μM, % of Control) MC3T3-E1 cell. On the procedure: as §1, §2, §3
Series [3] has as its system Calvarial cell. As to the kind of experiment: Cytotoxicity test (MTT) in osteoblasts (calvarial cells). To be noted: 1 μM, 72 hours, vs vehicle control.
Procedure: Drugs were diluted to a concentration of 2 μM in α-MEM culture media supplemented with 10% FBS. The vehicle control group was established to contain 0.2% DMSO. 100 μL/well of the diluted drugs were dispensed into 96-well plates to which osteoblasts (calvarial cells) prepared in Experimental Example 1 were then added at a density of 1.0×10^4 cells/100 μL/well. Here, the final compound concentration in the cell culture was 1 μM, and the vehicle control group contained 0.1% DMSO. The cells were cultured in a 5% CO2 inhibitorr at 37° for 72 hours. 25 μL of 3-(4,5-dimethyl-2-thiazolyl)-2,5-diphenyl-2H-tetrazolium bromide (MTT) dissolved in PBS (2 mg/mL) was added to each cell culture 4 hours before the end of culture. After completion of the reaction, the plates were centrifuged, the media were discarded, and 100 μL of formazan was added and dissolved in dimethyl sulfoxide (DMSO). Finally, the absorbance of the developed plates was measured at 540 nm. The cell viability was expressed as % concentration in comparison with the vehicle control group.

SMILES strings stand for the structures.

`CN(C)CC(C)(C)CNc1ccc([N+](=O)[O-])c(Nc2ccc3[nH]ncc3c2)n1` [Compound 16, 2-(1H-indazol-5-yl)amino-6-[(3-dimethylamino-2,2-dimethyl)-propylamino]-3-nitropyridine]: the “Osteoclastogenesis inhibition (%)” value in series [1] is 89%. In addition, in the series on Calvarial cell [2], the “ALP activity (1 μM, % of Control) Calvarial cell” value was 123 % of Control. The “ALP activity (1 μM, % of Control) MC3T3-E1 cell” value in the series on MC3T3-E1 cell was 144 % of Control. Besides, in the series with Calvarial cell [3], the “Cell viability (%) Calvarial cell” value is listed as 104%.

Turning to `CN(CCO)c1ccc([N+](=O)[O-])c(Nc2ccc3[nH]ncc3c2)n1` [Compound 7, 2-(1H-indazol-5-yl)amino-6-[(N-methyl-2-hydroxyethyl)amino]-3-nitropyridine], the “Osteoclastogenesis inhibition (%)” value in series [1] worked out at 72%. In the series on Calvarial cell [2], the “ALP activity (1 μM, % of Control) Calvarial cell” value is given as 221 % of Control. Moreover, in the series with MC3T3-E1 cell, the “ALP activity (1 μM, % of Control) MC3T3-E1 cell” value was 155 % of Control. Also, the “Cell viability (%) Calvarial cell” value in the series with Calvarial cell [3] was found to be 103%.

What is called inhibition is how much of the control response was suppressed. Consider `O=[N+]([O-])c1ccc(N2CCC(O)CC2)nc1Nc1ccc2[nH]ncc2c1` [Compound 9, 2-(1H-indazol-5-yl)amino-6-(4-hydroxypiperidino)-3-nitropyridine], for which the inhibition at 1 µM in series [1] is 100%. The activity at 1 µM in the series with Calvarial cell [2] was found to be 166%; with MC3T3-E1 cell, 112%. Besides, the “Cell viability (%) Calvarial cell” value with Calvarial cell [3] turned out to be 105%.

In the case of `CC(C)(C)Nc1ccc([N+](=O)[O-])c(Nc2ccc3[nH]ncc3c2)n1` [Compound 12, 2-(1H-indazol-5-yl)amino-6-(t-butylamino)-3-nitropyridine], the inhibition at 1 µM in series [1] amounted to 99%. The figures for the activity at 1 µM in the series on Calvarial cell [2] and in the series on MC3T3-E1 cell were 152% and 136%, respectively. In the series on Calvarial cell [3], the “Cell viability (%) Calvarial cell” value was determined as 109%.

As for `CC(C)Nc1ccc([N+](=O)[O-])c(Nc2ccc3[nH]ncc3c2)n1` [Compound 6, 2-(1H-indazol-5-yl)amino-6-(isopropylamino)-3-nitropyridine], the inhibition at 1 µM in series [1] is 100%. Also, the activity at 1 µM amounted to 188% in the series with Calvarial cell [2] and 207% with MC3T3-E1 cell. In addition, the “Cell viability (%) Calvarial cell” value in the series with Calvarial cell [3] is on record as 97%.

For the compound `O=[N+]([O-])c1ccc(NCCc2ccccn2)nc1Nc1ccc2cn[nH]c2c1` [Compound 14, 2-(1H-indazol-6-yl)amino-6-[(2-pyridyl)ethylamino]-3-nitropyridine], in series [1], the inhibition at 1 µM was 98%. The activity at 1 µM with Calvarial cell [2] was 111%; in the series with MC3T3-E1 cell, 121%. Further, the “Cell viability (%) Calvarial cell” value in the series with Calvarial cell [3] is listed as 91%.

For `CC(C)c1nccn1-c1ccc([N+](=O)[O-])c(Nc2ccc3[nH]ncc3c2)n1` [Compound 3, 2-(1H-indazol-5-yl)amino-6-(2-isopropylimidazol-1-yl)-3-nitropyridine], the inhibition at 1 µM in series [1] was determined as 95%. Also, the activity at 1 µM in the series with Calvarial cell [2] came to 148%; in the series on MC3T3-E1 cell it was 172%. The “Cell viability (%) Calvarial cell” value with Calvarial cell [3] was determined as 118%.

Consider `CN(CC1OCCO1)c1ccc([N+](=O)[O-])c(Nc2ccc3[nH]ncc3c2)n1` [Compound 17, 2-(1H-indazol-5-yl)amino-6-[(N-[1,3]-dioxolan-2-ylmethyl)-methylamino]-3-nitropyridine], for which the “Osteoclastogenesis inhibition (%)” value in series [1] came out at 92%. The “ALP activity (1 μM, % of Control) Calvarial cell” value in the series on Calvarial cell [2] was 139 % of Control. Besides, the “ALP activity (1 μM, % of Control) MC3T3-E1 cell” value in the series on MC3T3-E1 cell is 188 % of Control. The “Cell viability (%) Calvarial cell” value with Calvarial cell [3] is recorded as 89%.

With `CNc1ccc([N+](=O)[O-])c(Nc2ccc3[nH]ncc3c2)n1` [Compound 5, 2-(1H-indazol-5-yl)amino-6-(methylamino)-3-nitropyridine], the inhibition at 1 µM in series [1] was found to be 89%. The activity at 1 µM in the series with Calvarial cell [2] amounted to 193%; with MC3T3-E1 cell, 206%. Also, the “Cell viability (%) Calvarial cell” value in the series on Calvarial cell [3] turned out to be 112%.
